# Assay results published in ChEMBL document CHEMBL3885881, “DrugMatrix”.
# Organism: Rattus norvegicus
# Format: toxicity, organism-based, Sprague-Dawley
# Settings: in vivo, ip, 24 h, route intraperitoneal, time 1 day, […]; for ABSOLUTE EOSINOPHIL / ABSOLUTE LYMPHOCYTE / ABSOLUTE MONOCYTE / ABSOLUTE SEGMENTED NEUTROPHIL / BASOPHIL / EOSINOPHIL / ERYTHROCYTE COUNT / HEMATOCRIT / HEMOGLOBIN / LEUKOCYTE COUNT / LYMPHOCYTE / MEAN CORPUSCULAR HEMOGLOBIN / MEAN CORPUSCULAR HEMOGLOBIN CONCENTRATION / MEAN CORPUSCULAR VOLUME / MONOCYTE / NEUTROPHIL / NUCLEATED RED BLOOD CELLS / PLATELET COUNT: tissue Blood; for ALANINE AMINOTRANSFERASE / ALBUMIN / ALKALINE PHOSPHATASE / ASPARTATE AMINOTRANSFERASE / BLOOD UREA NITROGEN / CARBON DIOXIDE / CHLORIDE / CHOLESTEROL / CREATININE / GLUCOSE / LACTATE DEHYDROGENASE / LIPASE / PHOSPHORUS / POTASSIUM / SODIUM / TOTAL BILIRUBIN / TOTAL PROTEIN / URIC ACID: tissue Plasma
# [1] = 0 mg/kg, vehicle control, dose level Control
# Description: DrugMatrix - Regimen: Single
smiles,measurement,setting,value
ClC(Cl)=C(Cl)C(Cl)=C(Cl)Cl [HEXACHLOROBUTADIENE],ABSOLUTE EOSINOPHIL,[1],212 CELLS/uL
same,ABSOLUTE LYMPHOCYTE,[1],10220.17 CELLS/uL
same,ABSOLUTE MONOCYTE,[1],368.83 CELLS/uL
same,ABSOLUTE SEGMENTED NEUTROPHIL,[1],1749 CELLS/uL
same,BASOPHIL,[1],0%
same,EOSINOPHIL,[1],1.67%
same,ERYTHROCYTE COUNT,[1],5.74 x10E6/uL
same,HEMATOCRIT,[1],35.72%
same,HEMOGLOBIN,[1],13 G/DL
same,LEUKOCYTE COUNT,[1],12.55 x10E3/uL
same,LYMPHOCYTE,[1],81.83%
same,MEAN CORPUSCULAR HEMOGLOBIN,[1],22.65 pg
same,MEAN CORPUSCULAR HEMOGLOBIN CONCENTRATION,[1],36.42 G/DL
same,MEAN CORPUSCULAR VOLUME,[1],62.18 fL
same,MONOCYTE,[1],2.83%
same,NEUTROPHIL,[1],13.67%
same,NUCLEATED RED BLOOD CELLS,[1],0 /100WBC
same,PLATELET COUNT,[1],841.83 x10E3/uL
same,ALANINE AMINOTRANSFERASE,[1],54 u/L
same,ALBUMIN,[1],4.15 G/DL
same,ALKALINE PHOSPHATASE,[1],357.33 u/L
same,ASPARTATE AMINOTRANSFERASE,[1],116 u/L
same,BLOOD UREA NITROGEN,[1],14.17 mg/dL
same,CARBON DIOXIDE,[1],34.5 mmol/L
same,CHLORIDE,[1],99.17 MEQ/L
same,CHOLESTEROL,[1],79.17 mg/dL
same,CREATININE,[1],0.2 mg/dL
same,GLUCOSE,[1],143.33 mg/dL
same,LACTATE DEHYDROGENASE,[1],187.17 u/L
same,LIPASE,[1],8.83 u/L
same,PHOSPHORUS,[1],11.4 mg/dL
same,POTASSIUM,[1],6.36 MEQ/L
same,SODIUM,[1],143.32 MEQ/L
same,TOTAL BILIRUBIN,[1],0.23 mg/dL
same,TOTAL PROTEIN,[1],6.22 G/DL
same,URIC ACID,[1],1.25 mg/dL
same,ABSOLUTE EOSINOPHIL,"50 mg/kg, dose level High",167 CELLS/uL
same,ABSOLUTE LYMPHOCYTE,"50 mg/kg, dose level High",9489 CELLS/uL
same,ABSOLUTE MONOCYTE,"50 mg/kg, dose level High",340.67 CELLS/uL
same,ABSOLUTE SEGMENTED NEUTROPHIL,"50 mg/kg, dose level High",2070 CELLS/uL
same,BASOPHIL,"50 mg/kg, dose level High",0%
same,EOSINOPHIL,"50 mg/kg, dose level High",1.33%
same,ERYTHROCYTE COUNT,"50 mg/kg, dose level High",5.16 x10E6/uL
same,HEMATOCRIT,"50 mg/kg, dose level High",31.83%
same,HEMOGLOBIN,"50 mg/kg, dose level High",11.8 G/DL
same,LEUKOCYTE COUNT,"50 mg/kg, dose level High",12.07 x10E3/uL
same,LYMPHOCYTE,"50 mg/kg, dose level High",79.33%
same,MEAN CORPUSCULAR HEMOGLOBIN,"50 mg/kg, dose level High",22.87 pg
same,MEAN CORPUSCULAR HEMOGLOBIN CONCENTRATION,"50 mg/kg, dose level High",37.07 G/DL
same,MEAN CORPUSCULAR VOLUME,"50 mg/kg, dose level High",61.67 fL
same,MONOCYTE,"50 mg/kg, dose level High",2.67%
same,NEUTROPHIL,"50 mg/kg, dose level High",16.67%
same,NUCLEATED RED BLOOD CELLS,"50 mg/kg, dose level High",0 /100WBC
same,PLATELET COUNT,"50 mg/kg, dose level High",549 x10E3/uL
same,ALANINE AMINOTRANSFERASE,"50 mg/kg, dose level High",65.67 u/L
same,ALBUMIN,"50 mg/kg, dose level High",4.2 G/DL
same,ALKALINE PHOSPHATASE,"50 mg/kg, dose level High",368.67 u/L
same,ASPARTATE AMINOTRANSFERASE,"50 mg/kg, dose level High",251.67 u/L
same,BLOOD UREA NITROGEN,"50 mg/kg, dose level High",15.33 mg/dL
same,CARBON DIOXIDE,"50 mg/kg, dose level High",30.33 mmol/L
same,CHLORIDE,"50 mg/kg, dose level High",100.67 MEQ/L
same,CHOLESTEROL,"50 mg/kg, dose level High",75.67 mg/dL
same,CREATININE,"50 mg/kg, dose level High",0.22 mg/dL
same,GLUCOSE,"50 mg/kg, dose level High",192.33 mg/dL
same,LACTATE DEHYDROGENASE,"50 mg/kg, dose level High",377.67 u/L
same,LIPASE,"50 mg/kg, dose level High",9 u/L
same,PHOSPHORUS,"50 mg/kg, dose level High",12.03 mg/dL
same,POTASSIUM,"50 mg/kg, dose level High",5.96 MEQ/L
same,SODIUM,"50 mg/kg, dose level High",144.97 MEQ/L
same,TOTAL BILIRUBIN,"50 mg/kg, dose level High",0.23 mg/dL
same,TOTAL PROTEIN,"50 mg/kg, dose level High",6.1 G/DL
same,URIC ACID,"50 mg/kg, dose level High",1.2 mg/dL
